PubChem BioAssay AID256 (DTP/NCI, 2004)
Inconclusive results and toxic doses are left out. Rule for the calls: active = survival T/C of 150% or more; inactive = T/C below 125% in these data.

System: CD2F1 mice, L1210 leukemia ip, survival T/C
Assay: NCI In Vivo Anticancer Drug Screen. Data for tumor model L1210 Leukemia (intraperitoneal) in CD2F1 (CDF1) mice
Details: higher = longer survival
Summary of the method: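 Transplantable tumor in mice; compound-treated vs vehicle-treated groups. Read-out = treated/control ratio of the measured endpoint.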

[1] = endpoint: mean survival time, dose: 100.0 mg/kg/injection, schedule: Q04DX003 (ip), vehicle: Klucel (hydroxypropylcellulose) (HPC)
[2] = endpoint: mean survival time, dose: 200.0 mg/kg/injection, schedule: Q04DX003 (ip), vehicle: Klucel (hydroxypropylcellulose) (HPC)
[3] = endpoint: mean survival time, dose: 400.0 mg/kg/injection, schedule: Q04DX003 (ip), vehicle: Klucel (hydroxypropylcellulose) (HPC)
[4] = endpoint: mean survival time, dose: 100.0 mg/kg/injection, schedule: Q04DX003 (ip), vehicle: saline
[5] = endpoint: mean survival time, dose: 200.0 mg/kg/injection, schedule: Q04DX003 (ip), vehicle: saline
[6] = endpoint: mean survival time, dose: 400.0 mg/kg/injection, schedule: Q04DX003 (ip), vehicle: saline
[7] = endpoint: mean survival time, dose: 50.0 mg/kg/injection, schedule: Q01DX009 (ip), vehicle: Klucel (hydroxypropylcellulose) (HPC)
[8] = endpoint: mean survival time, dose: 100.0 mg/kg/injection, schedule: Q01DX009 (ip), vehicle: Klucel (hydroxypropylcellulose) (HPC)
[9] = endpoint: median survival time, dose: 25.0 mg/kg/injection, schedule: Q01DX009 (ip), vehicle: saline with Tween-80
[10] = endpoint: median survival time, dose: 50.0 mg/kg/injection, schedule: Q01DX009 (ip), vehicle: saline with Tween-80
[11] = endpoint: median survival time, dose: 100.0 mg/kg/injection, schedule: Q01DX009 (ip), vehicle: saline with Tween-80
[12] = endpoint: median survival time, dose: 200.0 mg/kg/injection, schedule: Q01DX009 (ip), vehicle: saline with Tween-80
[13] = endpoint: median survival time, dose: 400.0 mg/kg/injection, schedule: Q01DX009 (ip), vehicle: saline with Tween-80
[14] = endpoint: mean survival time, dose: 6.25 mg/kg/injection, schedule: Q01DX009 (ip), vehicle: saline sonified
[15] = endpoint: mean survival time, dose: 12.5 mg/kg/injection, schedule: Q01DX009 (ip), vehicle: saline sonified
[16] = endpoint: mean survival time, dose: 25.0 mg/kg/injection, schedule: Q01DX009 (ip), vehicle: saline sonified
[17] = endpoint: mean survival time, dose: 100.0 mg/kg/injection, schedule: Q01DX009 (ip), vehicle: saline with Tween-80
[18] = endpoint: mean survival time, dose: 100.0 mg/kg/injection, schedule: Q04DX003 (ip), vehicle: saline with Tween-80
[19] = endpoint: mean survival time, dose: 25.0 mg/kg/injection, schedule: Q04DX003 (ip), vehicle: saline with Tween-80
[20] = endpoint: mean survival time, dose: 200.0 mg/kg/injection, schedule: Q01DX009 (ip), vehicle: saline with Tween-80
[21] = endpoint: mean survival time, dose: 400.0 mg/kg/injection, schedule: Q01DX009 (ip), vehicle: saline with Tween-80

Measured: T/C

CN(C)c1ccc(/C=C2/CCCC/C2=N/O)cc1
inactive: [1] 102 % of control | [2] 94 % of control | [3] 98 % of control

CC[C@H]1CN2CCc3cc(OC)c(OC)cc3[C@@H]2C[C@@H]1C[C@H]1NCCc2cc(O)c(OC)cc21
inactive: endpoint: mean survival time, dose: 0.5 mg/kg/injection, schedule: Q01DX015 (ip), vehicle: saline 107 % of control | endpoint: mean survival time, dose: 1.0 mg/kg/injection, schedule: Q01DX015 (ip), vehicle: saline 110 % of control | endpoint: mean survival time, dose: 2.0 mg/kg/injection, schedule: Q01DX015 (ip), vehicle: saline 122 % of control | endpoint: mean survival time, dose: 8.0 mg/kg/injection, schedule: Q01DX015 (ip), vehicle: saline 115 % of control | endpoint: mean survival time, dose: 16.0 mg/kg/injection, schedule: Q01DX015 (ip), vehicle: saline 89 % of control

CC1(C(=O)O)CCCC1C(CCC(=O)O)C(=O)O (configuration not stated)
inactive: [4] 98 % of control | [5] 96 % of control | [6] 96 % of control

C=CCOc1c(C)cc(C)cc1C
inactive: [7] 113 % of control | [8] 94 % of control | endpoint: mean survival time, dose: 200.0 mg/kg/injection, schedule: Q01DX009 (ip), vehicle: Klucel (hydroxypropylcellulose) (HPC) 102 % of control

Cc1cc(Br)c2nsnc2c1[N+](=O)[O-]
inactive: [9] 97 % of control | [10] 100 % of control | [11] 101 % of control | [12] 100 % of control | [13] 101 % of control

C[N+](C)(C)CCCCC[N+](C)(C)C
inactive: [14] 93 % of control | endpoint: mean survival time, dose: 6.25 mg/kg/injection, schedule: Q04DX003 (ip), vehicle: saline 103 % of control | [15] 90 % of control | endpoint: mean survival time, dose: 12.5 mg/kg/injection, schedule: Q04DX003 (ip), vehicle: saline 95 % of control | [16] 93 % of control | endpoint: mean survival time, dose: 25.0 mg/kg/injection, schedule: Q01DX009 (ip), vehicle: saline with Tween-80 100 % of control | endpoint: mean survival time, dose: 25.0 mg/kg/injection, schedule: Q04DX003 (ip), vehicle: saline 101 % of control | endpoint: mean survival time, dose: 50.0 mg/kg/injection, schedule: Q01DX009 (ip), vehicle: saline with Tween-80 108 % of control | [17] 103 % of control | [18] 86 % of control

CN(C=O)C(C(=O)Nc1cccc2c(OC(=O)C(N(C)C=O)(N(C)C=O)N(C)C=O)c(N=Nc3ccc(S(=O)(=O)Nc4nccs4)cc3)cc(N=Nc3ccc(S(=O)(=O)Nc4nccs4)cc3)c12)(N(C)C=O)N(C)C=O (tested in a mixture with another compound)
inactive: endpoint: median survival time, dose: 12.0 mg/kg/injection, schedule: Q01DX009 (ip), vehicle: saline with Tween-80 95 % of control | [9] 106 % of control | [10] 95 % of control | [11] 94 % of control | [12] 97 % of control | [13] 106 % of control

CCCCCCCCCCCC1=C(O)C(=O)C=C(O)C1=O
inactive: endpoint: mean survival time, dose: 12.5 mg/kg/injection, schedule: Q01DX001 (ip), vehicle: saline 102 % of control | endpoint: mean survival time, dose: 25.0 mg/kg/injection, schedule: Q01DX001 (ip), vehicle: saline 123 % of control | endpoint: mean survival time, dose: 50.0 mg/kg/injection, schedule: Q01DX001 (ip), vehicle: saline 101 % of control

O=C(NNCN1C(=O)c2ccccc2C1=O)c1ccccc1
inactive: endpoint: mean survival time, dose: 100.0 mg/kg/injection, schedule: Q01DX001 (ip), vehicle: saline 98 % of control | [4] 100 % of control | endpoint: mean survival time, dose: 200.0 mg/kg/injection, schedule: Q01DX001 (ip), vehicle: saline 104 % of control | [5] 100 % of control | endpoint: mean survival time, dose: 400.0 mg/kg/injection, schedule: Q01DX001 (ip), vehicle: saline 100 % of control | [6] 103 % of control

COc1ccc(/C=C\[N+](=O)[O-])cc1OC
inactive: [1] 101 % of control | [2] 104 % of control | [3] 101 % of control

CCC1(CC)COC(C)(C(=O)O)OC1
inactive: [4] 111 % of control | [5] 96 % of control | [6] 100 % of control

CCOC(=O)C(=O)C1CCc2c(ccc3ccccc23)C1=O (configuration not stated)
inactive: endpoint: mean survival time, dose: 50.0 mg/kg/injection, schedule: Q04DX002 (ip), vehicle: saline with Tween-80 93 % of control | endpoint: mean survival time, dose: 100.0 mg/kg/injection, schedule: Q01DX001 (ip), vehicle: Klucel (hydroxypropylcellulose) (HPC) 91 % of control | endpoint: mean survival time, dose: 100.0 mg/kg/injection, schedule: Q04DX002 (ip), vehicle: saline with Tween-80 96 % of control | endpoint: mean survival time, dose: 200.0 mg/kg/injection, schedule: Q01DX001 (ip), vehicle: Klucel (hydroxypropylcellulose) (HPC) 93 % of control | endpoint: mean survival time, dose: 200.0 mg/kg/injection, schedule: Q04DX002 (ip), vehicle: saline with Tween-80 96 % of control

O=Cc1c[nH]c2ncccc12
inactive: [18] 98 % of control | endpoint: mean survival time, dose: 200.0 mg/kg/injection, schedule: Q04DX003 (ip), vehicle: saline with Tween-80 94 % of control | endpoint: mean survival time, dose: 400.0 mg/kg/injection, schedule: Q04DX003 (ip), vehicle: saline with Tween-80 98 % of control

Oc1ccc(Sc2ccc(O)cc2O)c(O)c1
inactive: [4] 101 % of control | [5] 103 % of control | [6] 93 % of control

O=C(CBr)c1ccccc1
inactive: endpoint: mean survival time, dose: 5.0 mg/kg/injection, schedule: Q01DX009 (ip), vehicle: saline with Tween-80 97 % of control | endpoint: mean survival time, dose: 10.0 mg/kg/injection, schedule: Q01DX009 (ip), vehicle: saline with Tween-80 93 % of control

CC(C[P+](c1ccccc1)(c1ccccc1)c1ccccc1)C(O)(C(=O)c1ccccc1)c1ccccc1 (configuration not stated)
inactive: endpoint: mean survival time, dose: 6.25 mg/kg/injection, schedule: Q01DX001 (ip), vehicle: saline with Tween-80 108 % of control | endpoint: mean survival time, dose: 6.25 mg/kg/injection, schedule: Q01DX009 (ip), vehicle: saline with Tween-80 95 % of control | endpoint: mean survival time, dose: 12.5 mg/kg/injection, schedule: Q01DX001 (ip), vehicle: saline with Tween-80 103 % of control | endpoint: mean survival time, dose: 12.5 mg/kg/injection, schedule: Q01DX009 (ip), vehicle: saline with Tween-80 110 % of control | endpoint: mean survival time, dose: 25.0 mg/kg/injection, schedule: Q01DX001 (ip), vehicle: saline with Tween-80 108 % of control

CCOC(=O)C[P+](c1ccccc1)(c1ccccc1)c1ccccc1
inactive: endpoint: mean survival time, dose: 3.13 mg/kg/injection, schedule: Q01DX009 (ip), vehicle: saline sonified 93 % of control | endpoint: mean survival time, dose: 3.13 mg/kg/injection, schedule: Q04DX003 (ip), vehicle: saline with Tween-80 98 % of control | [14] 94 % of control | endpoint: mean survival time, dose: 6.25 mg/kg/injection, schedule: Q04DX003 (ip), vehicle: saline with Tween-80 98 % of control | [15] 93 % of control | endpoint: mean survival time, dose: 12.5 mg/kg/injection, schedule: Q04DX003 (ip), vehicle: saline with Tween-80 98 % of control | [16] 93 % of control | [19] 95 % of control

O=C(Nc1ccc(Cl)c(C(F)(F)F)c1)Nc1cc(Cl)ccc1Sc1cc(Cl)c(Cl)cc1S(=O)(=O)O
inactive: endpoint: mean survival time, dose: 100.0 mg/kg/injection, schedule: Q01DX001 (ip), vehicle: saline sonified 102 % of control | [17] 100 % of control | endpoint: mean survival time, dose: 200.0 mg/kg/injection, schedule: Q01DX001 (ip), vehicle: saline sonified 93 % of control | [20] 105 % of control | endpoint: mean survival time, dose: 400.0 mg/kg/injection, schedule: Q01DX001 (ip), vehicle: saline sonified 93 % of control | [21] 102 % of control

COc1ccc(N2CSC(=S)N(c3ccc(OC)cc3)C2)cc1
inactive: endpoint: mean survival time, dose: 100.0 mg/kg/injection, schedule: Q04DX003 (ip), vehicle: other 94 % of control

COc1cc(C(C)=O)cc(OCc2ccccc2)c1OC
inactive: [17] 100 % of control | [20] 102 % of control | [21] 96 % of control

CC(C)N(Cl)S(C)(=O)=O
inactive: [19] 97 % of control | endpoint: mean survival time, dose: 50.0 mg/kg/injection, schedule: Q04DX003 (ip), vehicle: saline with Tween-80 93 % of control | [18] 95 % of control

CC=C1C=C(C(C)(C)C)C(=O)C(C(C)(C)C)=C1
inactive: endpoint: mean survival time, dose: 25.0 mg/kg/injection, schedule: Q01DX009 (ip), vehicle: Klucel (hydroxypropylcellulose) (HPC) 90 % of control | [7] 102 % of control | [8] 98 % of control
